In patent US10934297B2, “5-heteroaryl substituted indazole-3-carboxamides and preparation and use thereof” (Samumed, LLC, priority 2018, dated 2021):

Experiments:
[1] = system: primary human mesenchymal stem cells (hMSCs); assay: Tenocyte differentiation assay (SCXA-positive cells) in hMSCs; format: cell-based; settings: for EC50: Homo sapiens, Mesenchymal stem cells, 96 h, hMSCs, 4 days, SCXA positive cells; for percent in parentheses under EC50 >100: given for EC50 >100 μM, meaning not defined in this example
Excerpt: Representative compounds were screened using primary human mesenchymal stem cells (hMSCs) to determine their ability to induce tenocyte differentiation (process by which tendon is developed).
Primary human mesenchymal stem cells (hMSCs) were purchased from Lonza (Walkersville, Md.) and expanded in Mesenchymal Stem Cell Growth Media (Lonza). Cells between passage 3 and 6 were used for the experiments.
Cells were fixed using 4% formaldehyde (Electron Microscopy Sciences), and stained with anti-Sclerasis (anti-SCXA) antibodies (Abgent, San Diego, Calif.) [Webb S., et.al., Retinoic acid receptor signaling preserves tendon stem cell characteristics and prevents spontaneous differentiation in vitro, Stem Cell Research & Therapy 2016, 7:45] overnight at 4° C. […] Number of cells positive for SCXA in each well was quantified using the CellInsight CX5. Data was normalized to the average of 12 DMSO treated wells on the same plate using Dotmatics Studies module. The normalized averages (fold change over DMSO) of 3 replicate wells for each compound concentration were calculated. Due to solubility limitations of some of the compounds, values for higher doses were manually corrected and curve fitting and EC50 determinations were performed using Dotmatics Studies.

[2] = system: SW480 colon carcinoma cells; assay: Cell viability assay (CellTiter-Glo) in SW480 colon carcinoma cells; format: cell-based, human; settings: Homo sapiens, 96 h, four days
In short: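 SW480 cells stably carrying an Sp5-promoter luciferase reporter were plated at 2,000 cells/well in DMEM with 1% FBS and treated with compound for four days at 37 °C. Viability was read as ATP luminescence with CellTiter-Glo after about 12 min; DMSO-treated wells served as controls.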

[3] = target: GSK3β kinase (Homo sapiens (Human), UniProt P49841); assay: GSK3β kinase assay (Ser/Thr 09 peptide Z-lyte FRET); format: biochemical; settings: read-out: EC50 (method: IC50)
Chain of GSK3β kinase (P49841 whole entry): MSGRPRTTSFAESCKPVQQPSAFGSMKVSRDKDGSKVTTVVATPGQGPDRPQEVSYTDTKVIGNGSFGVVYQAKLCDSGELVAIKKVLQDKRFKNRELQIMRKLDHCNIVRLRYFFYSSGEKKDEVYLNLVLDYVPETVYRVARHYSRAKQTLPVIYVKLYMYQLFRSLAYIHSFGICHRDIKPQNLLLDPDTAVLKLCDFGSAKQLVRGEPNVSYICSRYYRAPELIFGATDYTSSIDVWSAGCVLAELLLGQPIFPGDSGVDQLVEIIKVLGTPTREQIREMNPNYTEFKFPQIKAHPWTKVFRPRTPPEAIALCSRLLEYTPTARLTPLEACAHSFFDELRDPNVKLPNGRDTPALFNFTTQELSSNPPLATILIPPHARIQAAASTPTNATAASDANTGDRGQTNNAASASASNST
In short: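 Non-radioactive Z-lyte FRET read-out, kinase activity expressed as coumarin/fluorescein emission ratio. Compounds incubated with the reaction mixture one hour at room temperature in duplicate, then development buffer added for another hour. IC50 from non-linear regression of dose-response curves.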

[4] = system: Wnt activity (Sp5-Luc reporter in SW480 cells); assay: Screening assay for Wnt activity: Sp5-Luc reporter gene assay in SW480 colon carcinoma cells; format: cell-based, human; settings: Homo sapiens, 36 to 48 hours
In short: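 SW480 colon carcinoma cells stably carrying a lentiviral luciferase reporter driven by an Sp5 promoter with eight TCF/LEF sites, plated at 4,000 cells/well in DMEM with 1% FBS. Compound exposure for 36–48 h at 37 °C, then luminescence read. Signals normalized to DMSO; EC50 from four-parameter nonlinear fit.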

[5] = system: IL-6; assay: IL-6 inhibition in LPS-stimulated human peripheral blood mononuclear cells (HTRF); format: cell-based; settings: Homo sapiens, PBMC; for EC50: huPBMCs, LPS 50 ng/mL, 22 hours, IL-6 HTRF; for inhibition at 10 µM: read-out: percent inhibition at 10 μM
In short: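 Fresh human PBMCs at 1×10e6 cells/mL in RPMI/1% FBS were stimulated with 50 ng/mL E. coli 0111:B4 LPS added 2 h after compound, then incubated 22 h at 37° C. Secreted IL-6 was measured by HTRF (665/620 nm ratio) after 3 h at room temperature. EC50 was taken from activity normalized to DMSO-treated cells.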

[6] = system: primary human fibroblasts derived from IPF patients (LL29 cells); assay: Inhibition of the fibrotic process: αSMA staining in TGF-β1 treated LL29 fibroblasts; format: cell-based; settings: Homo sapiens, Fibroblast, 96 h; LL29 cells, TGF-β1 20 ng/mL, 4 days, % αSMA positive cells
In short: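 LL29 fibroblasts from IPF patients, in F12 medium with 1% FBS, treated with TGF-β1 plus compound; TGF-β1 with DMSO as positive control, DMSO alone as negative control. After 4 days' incubation, SYTOX green nucleic acid stain added at 1 μM final, 30 min at room temperature.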

[7] = target: DYRK1A kinase (Homo sapiens (Human), UniProt Q13627); assay: DYRK1A kinase assay (Ser/Thr 18 peptide Z-lyte FRET); format: biochemical; settings: read-out: EC50 (method: IC50)
In short: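 This Z-lyte FRET assay reads the coumarin/fluorescein emission ratio. Compounds were incubated with the reaction mixture for 1 h at room temperature, followed by development reagent for a further 1 h at room temperature, in duplicate.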

SMILES | EC50 [1] [nM] | percent in parentheses under EC50 >100 [1] | EC50 [2] [nM] | IC50 [3] [nM] | EC50 [4] [nM] | EC50 [5] [nM] | IC50 [7] [nM] | EC50 [6] [nM] | inhibition at 10 µM [5] [%]
CN1CCC(n2cc(-c3ccc4[nH]nc(C(=O)Nc5cnn(C)c5)c4c3)cn2)CC1 [Compound 142, N-(1-Methyl-1H-pyrazol-4-yl)-5-(1-(1-methylpiperidin-4-yl)-1H-pyrazol-4-yl)-1H-indazole-3-carboxamide] | > 100000 | (38.2%) | 116 | 208 | 130 | 1100 | 8 | 115 | 
Cc1cc(NC(=O)c2n[nH]c3ccc(-c4cnn(C5CCN(C)CC5)c4)cc23)sn1 [Compound 143, N-(3-Methylisothiazol-5-yl)-5-(1-(1-methylpiperidin-4-yl)-1H-pyrazol-4-yl)-1H-indazole-3-carboxamide] | > 100000 | (23.0%) | 60 | 52 | 90 | 1410 | 5 | 207 | 
Cc1cnc(NC(=O)c2n[nH]c3ccc(-c4cnn(C5CCN(C)CC5)c4)cc23)s1 [Compound 144, 5-(1-(1-Methylpiperidin-4-yl)-1H-pyrazol-4-yl)-N-(5-methylthiazol-2-yl)-1H-indazole-3-carboxamide] | > 100000 | (27.4%) | 1300 | 6440 | > 10000 | > 10000 | 8 | 2190 | 49
CC(C)CN1CC[C@H](NC(=O)c2n[nH]c3ccc(-c4cn[nH]c4)cc23)[C@@H](F)C1 [Compound 145, N-((3 S,4S)-3-Fluoro-1-isobutylpiperidin-4-yl)-5-(1H-pyrazol-4-yl)-1H-indazole-3-carboxamide] | 863 |  | 372 | 41 | 345 | 1140 | 37 | 100 | 
CN1CCC(CNC(=O)c2n[nH]c3ccc(-c4cnn(C)c4)cc23)CC1 [Compound 147, 5-(1-Methyl-1H-pyrazol-4-yl)-N-((1-methylpiperidin-4-yl)methyl)-1H-indazole-3-carboxamide] | 2640 |  | 6700 | 15 | 3870 | 1070 | 26 | 723 | 
Cc1ncc(-c2ccc3[nH]nc(C(=O)NC4CCN(c5ccc(F)cc5)CC4)c3c2)n1C [Compound 148, 5-(1,2-Dimethyl-1H-imidazol-5-yl)-N-(1-(4-fluorophenyl)piperidin-4-yl)-1H-indazole-3-carboxamide] | 3090 |  | 8020 | 57 | 4490 | > 10000 | 49 | 4620 | 24.2
CN1CCC(Oc2ccc(NC(=O)c3n[nH]c4c(F)cc(-c5cnn(C)c5)cc34)cc2)CC1 [Compound 152, 7-Fluoro-5-(1-methyl-1H-pyrazol-4-yl)-N-(4-((1-methylpiperidin-4-yl)oxy)phenyl)-1H-indazole-3-carboxamide] | > 100000 | (34.7%) | 783 | 65 | 1460 | 6850 | 38 | 1120 | 
CN1CCC(Oc2ccc(NC(=O)c3n[nH]c4cc(F)c(-c5cn(C)nc5CO)cc34)cc2)CC1 [Compound 153, 6-Fluoro-5-(3-(hydroxymethyl)-1-methyl-1H-pyrazol-4-yl)-N-(4-((1-methylpiperidin-4-yl)oxy)phenyl)-1H-indazole-3-carboxamide] | > 100000 | (20.7%) | > 10000 | > 10000 | > 10000 | > 10000 | 1210 | > 10000 | 3.7
CN1CCC(Oc2cc(NC(=O)c3n[nH]c4cc(F)c(-c5cnn(C)c5)cc34)ccn2)CC1 [Compound 156, 6-Fluoro-5-(1-methyl-1H-pyrazol-4-yl)-N-(2-((1-methylpiperidin-4-yl)oxy)pyridin-4-yl)-1H-indazole-3-carboxamide] | 2640 |  | 64 | 53 | 109 | 4290 | 2 | 1380 | 

Further lines, with some results ahead:

EC50 [1] [nM] | percent in parentheses under EC50 >100 [1] | EC50 [2] [nM] | IC50 [3] [nM] | EC50 [4] [nM] | EC50 [5] [nM] | IC50 [7] [nM] | SMILES | EC50 [6] [nM] | inhibition at 10 µM [5] [%]
> 100000 | (36.0%) | 331 | 49 | 217 | > 10000 | 1 | CN1CCN(c2cccc(NC(=O)c3n[nH]c4cc(F)c(-c5cnn(C)c5)cc34)c2)CC1 [Compound 149, 6-Fluoro-5-(1-methyl-1H-pyrazol-4-yl)-N-(3-(4-methylpiperazin-1-yl)phenyl)-1H-indazole-3-carboxamide] | > 10000 | 44.7
> 100000 | (17.4%) | 214 | 52 | 248 | 3570 | 4 | Cn1cc(-c2cc3c(C(=O)Nc4cccc(OC5CCNCC5)c4)n[nH]c3cc2F)cn1 [Compound 150, 6-Fluoro-5-(1-methyl-1H-pyrazol-4-yl)-N-(3-(piperidin-4-yloxy)phenyl)-1H-indazole-3-carboxamide] | 317 | 
> 100000 | (3.5%) | 258 | 80 | 113 | 7370 | 5 | CN1CCC(Oc2cccc(NC(=O)c3n[nH]c4cc(F)c(-c5cnn(C)c5)cc34)c2)CC1 [Compound 151, 6-Fluoro-5-(1-methyl-1H-pyrazol-4-yl)-N-(3-((1-methylpiperidin-4-yl)oxy)phenyl)-1H-indazole-3-carboxamide] | > 10000 | 
> 100000 | (21.0%) | 414 | 20 | 306 | 1860 | 5 | Cn1cc(-c2cc3c(C(=O)Nc4cccc(OCCN5CCCC5)c4)n[nH]c3cc2F)cn1 [Compound 154, 6-Fluoro-5-(1-methyl-1H-pyrazol-4-yl)-N-(3-(2-(pyrrolidin-1-yl)ethoxy)phenyl)-1H-indazole-3-carboxamide] | 1130 | 
> 100000 | (35.3%) | 1300 | 20 | 1150 | 1310 | 1 | CN1CCC(Oc2ncc(NC(=O)c3n[nH]c4cc(F)c(-c5cnn(C)c5)cc34)cc2F)CC1 [Compound 157, 6-Fluoro-N-(5-fluoro-6-((1-methylpiperidin-4-yl)oxy)pyridin-3-yl)-5-(1-methyl-1H-pyrazol-4-yl)-1H-indazole-3-carboxamide] | 2580 | 
> 100000 | (17.4%) | 784 | 349 | 1160 | 5990 | 23 | CC(C)n1cc(-c2cc3c(C(=O)Nc4ccc(OC5CCN(C)CC5)cc4)n[nH]c3cc2F)cn1 [Compound 158, 6-Fluoro-5-(1-isopropyl-1H-pyrazol-4-yl)-N-(4-((1-methylpiperidin-4-yl)oxy)phenyl)-1H-indazole-3-carboxamide] | 1150 | 
